For 33 molecules, Activity and IC50 results are on record in ChEMBL document CHEMBL5260842 (J Med Chem, 2019).

The target in assay [1] is T1, von Hippel-Lindau disease tumor suppressor/Androgen receptor (Homo sapiens, UniProt P10275+P40337). Briefly: Protac activity at VHL/AR in AR-positive human LNCaP cells assessed as induction of androgen receptor degradation at 0.01 uM incubated for 6 hrs by Western blot analysis (reference value: 0%). In kind it is cell-based. On the technique in general: Immunoblotting shows a protein as a band on a membrane.
T1 sequence (P10275 whole entry, looked up): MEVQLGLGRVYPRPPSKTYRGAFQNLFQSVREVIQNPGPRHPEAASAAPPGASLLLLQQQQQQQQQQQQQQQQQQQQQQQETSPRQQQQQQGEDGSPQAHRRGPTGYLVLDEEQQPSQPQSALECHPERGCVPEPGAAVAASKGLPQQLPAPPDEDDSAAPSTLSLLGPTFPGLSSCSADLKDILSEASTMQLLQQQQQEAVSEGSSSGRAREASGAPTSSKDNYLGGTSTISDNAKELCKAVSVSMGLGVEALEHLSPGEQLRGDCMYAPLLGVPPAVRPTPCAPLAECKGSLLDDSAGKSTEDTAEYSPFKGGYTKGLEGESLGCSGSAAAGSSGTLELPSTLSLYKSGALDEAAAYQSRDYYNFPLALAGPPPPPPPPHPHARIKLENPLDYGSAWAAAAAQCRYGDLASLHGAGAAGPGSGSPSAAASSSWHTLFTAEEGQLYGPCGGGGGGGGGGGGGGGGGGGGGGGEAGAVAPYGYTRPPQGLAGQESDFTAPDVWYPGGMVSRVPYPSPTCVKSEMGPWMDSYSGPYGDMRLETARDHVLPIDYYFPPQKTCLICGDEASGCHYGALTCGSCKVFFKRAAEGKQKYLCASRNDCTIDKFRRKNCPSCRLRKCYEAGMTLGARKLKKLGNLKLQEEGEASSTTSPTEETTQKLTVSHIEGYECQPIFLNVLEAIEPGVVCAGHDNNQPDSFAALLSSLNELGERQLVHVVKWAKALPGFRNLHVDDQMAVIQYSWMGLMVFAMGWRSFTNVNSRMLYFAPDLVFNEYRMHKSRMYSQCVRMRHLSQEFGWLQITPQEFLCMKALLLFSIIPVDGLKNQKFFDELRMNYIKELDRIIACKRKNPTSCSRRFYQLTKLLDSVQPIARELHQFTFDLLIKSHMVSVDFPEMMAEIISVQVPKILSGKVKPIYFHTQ
T1 sequence (P40337 whole entry, looked up): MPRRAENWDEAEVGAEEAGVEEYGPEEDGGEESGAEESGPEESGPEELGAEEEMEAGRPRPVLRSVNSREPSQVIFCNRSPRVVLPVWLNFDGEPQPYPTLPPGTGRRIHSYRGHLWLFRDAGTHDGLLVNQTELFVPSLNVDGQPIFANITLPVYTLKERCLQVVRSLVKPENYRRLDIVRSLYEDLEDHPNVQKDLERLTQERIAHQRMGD

Assay [2] concerns the target T1, von Hippel-Lindau disease tumor suppressor/Androgen receptor. Briefly: Protac activity at VHL/AR in AR-positive human LNCaP cells assessed as induction of androgen receptor degradation at 0.1 uM incubated for 6 hrs by Western blot analysis (reference value: 0%). In kind it is cell-based.
The next assay has as its system LNCaP. Put plainly: Cytotoxicity against AR-positive human LNCaP cells assessed as inhibition of cell growth incubated for 7 days in presence of AR agonist, R1881 in charcoal stripped medium by WST-8 assay. Type of assay: functional, cell-based. As to conditions: 168 h.
For a further assay, the system named is VCaP. Put plainly: Cytotoxicity against AR-positive human VCaP cells assessed as inhibition of cell growth incubated for 7 days in presence of AR agonist, R1881 in charcoal stripped medium by WST-8 assay. As to conditions: 168 h. In kind it is functional, cell-based. In general terms: Formazan colour is commonly taken as a measure of viable cells.
Another assay relates to CWR22R. Briefly: Cytotoxicity against AR-positive human 22Rv1 cells assessed as inhibition of cell growth incubated for 7 days in regular culture medium by WST-8 assay. The settings on record: 22Rv1, 168 h. In kind it is functional, cell-based.

Consider `Cc1ncsc1-c1ccc(CNC(=O)[C@@H]2C[C@@H](O)CN2C(=O)[C@@H](NC(=O)CCCCCCc2ccc(C#Cc3ccc(N4C(=S)N(c5ccc(C#N)c(C(F)(F)F)c5)C(=O)C4(C)C)cc3)cn2)C(C)(C)C)cc1`, for which the Activity in assay [1] is 30%; in assay [2], 63%.
Taken in the same sequence, the figures for `Cc1ncsc1-c1ccc(CNC(=O)[C@@H]2C[C@@H](O)CN2C(=O)[C@@H](NC(=O)CCCCCCCNC(=O)c2ccc(N3C(=S)N(c4ccc(C#N)c(C(F)(F)F)c4)C(=O)C3(C)C)cc2F)C(C)(C)C)cc1` were 8% and 29%.
Consider `Cc1ncsc1-c1ccc(CNC(=O)[C@@H]2C[C@@H](O)CN2C(=O)[C@@H](NC(=O)CCCCCNC(=O)c2ccc(N3C(=S)N(c4ccc(C#N)c(C(F)(F)F)c4)C(=O)C3(C)C)cc2F)C(C)(C)C)cc1`, for which the Activity in assay [2] is 11%.
Still for that read-out and setting: in the case of `Cc1ncsc1-c1ccc([C@@H](CC(=O)N2CCC(N3CCC(C#Cc4ccc(C(=O)N[C@H]5C(C)(C)[C@H](Oc6ccc(C#N)c(Cl)c6)C5(C)C)cc4)CC3)CC2)NC(=O)[C@@H]2C[C@@H](O)CN2C(=O)[C@@H](NC(=O)C2(F)CC2)C(C)(C)C)cc1` it was less than 5%; in that of `Cc1ncsc1-c1ccc(CNC(=O)[C@@H]2C[C@@H](O)CN2C(=O)[C@@H](NC(=O)CCCCNC(=O)c2ccc(N3C(=S)N(c4ccc(C#N)c(C(F)(F)F)c4)C(=O)C3(C)C)cc2F)C(C)(C)C)cc1`, 16%.
Regarding `Cc1ncsc1-c1ccc([C@H](C)NC(=O)[C@@H]2C[C@@H](O)CN2C(=O)[C@@H](NC(=O)CCCN2CCN(c3ccc(C#Cc4ccc(N5C(=S)N(c6ccc(C#N)c(C(F)(F)F)c6)C(=O)C5(C)C)cc4)cn3)CC2)C(C)(C)C)cc1`, the Activity was 37% in assay [1] and 61% in assay [2].
Taken in the same sequence, the figures for `Cc1cc([C@H](C(=O)N2C[C@H](O)C[C@H]2C(=O)N[C@@H](CC(=O)NCCCCCCCCCNC(=O)c2ccc(N3C(=S)N(c4ccc(C#N)c(C(F)(F)F)c4)C(=O)C3(C)C)cc2F)c2ccc(-c3sncc3C)cc2)C(C)C)on1` were 11% and 50%.
Turning to `Cc1ncsc1-c1ccc(CNC(=O)[C@@H]2C[C@@H](O)CN2C(=O)[C@@H](NC(=O)CCCN2CCN(c3ccc(C#Cc4ccc(N5C(=S)N(c6ccc(C#N)c(C(F)(F)F)c6)C(=O)C5(C)C)cc4)cn3)CC2)C(C)(C)C)cc1`, the Activity in assay [2] is 50%.
In the case of `Cc1ncsc1-c1ccc([C@H](C)NC(=O)[C@@H]2C[C@@H](O)CN2C(=O)[C@@H](NC(=O)CCN2CCN(c3ccc(C#Cc4ccc(N5C(=S)N(c6ccc(C#N)c(C(F)(F)F)c6)C(=O)C5(C)C)cc4)cn3)CC2)C(C)(C)C)cc1`, the Activity in assay [1] turned out to be 34%; in assay [2] it was 51%.
As to `Cc1cc([C@H](C(=O)N2C[C@H](O)C[C@H]2C(=O)N[C@@H](CC(=O)N2CCC(N3CCC(C#Cc4ccc(C(=O)N[C@H]5C(C)(C)[C@H](Oc6ccc(C#N)c(Cl)c6)C5(C)C)cc4)CC3)CC2)c2ccc(-c3scnc3C)cc2)C(C)C)on1`, the Activity in assay [1] stood at 76%; in assay [2] it was 98%.
`Cc1ncsc1-c1ccc([C@H](CC(=O)N2CCC(N3CCC(C#Cc4ccc(C(=O)N[C@H]5C(C)(C)[C@H](Oc6ccc(C#N)c(Cl)c6)C5(C)C)cc4)CC3)CC2)NC(=O)[C@@H]2C[C@@H](O)CN2C(=O)[C@@H](NC(=O)C2(C#N)CC2)C(C)(C)C)cc1`: the values for the Activity in assay [1] and in assay [2] were 76% and 99%, respectively.
For `Cc1cc([C@H](C(=O)N2C[C@H](O)C[C@H]2C(=O)N[C@@H](CC(=O)NCCCN2CCN(c3ccc(C#Cc4ccc(N5C(=S)N(c6ccc(C#N)c(C(F)(F)F)c6)C(=O)C5(C)C)cc4)cn3)CC2)c2ccc(-c3sncc3C)cc2)C(C)C)on1` the same measures were 27% and 75%.
On to `Cc1ncsc1-c1ccc([C@H](C)NC(=O)[C@@H]2C[C@@H](O)CN2C(=O)[C@@H](NC(=O)N2CCN(c3ccc(C#Cc4ccc(N5C(=S)N(c6ccc(C#N)c(C(F)(F)F)c6)C(=O)C5(C)C)cc4)cn3)CC2)C(C)(C)C)cc1`, for which the Activity in assay [2] turned out to be 0%.
Same read-out and setting: as for `Cc1ncsc1-c1ccc(CNC(=O)[C@@H]2C[C@@H](O)CN2C(=O)[C@@H](NC(=O)CCCNC(=O)c2ccc(N3C(=S)N(c4ccc(C#N)c(C(F)(F)F)c4)C(=O)C3(C)C)cc2F)C(C)(C)C)cc1`, the figure is 15%.
Usually IC50 stands for the midpoint of a concentration-inhibition curve. `CC1(C)[C@H](NC(=O)c2cnn(CCO)c2)C(C)(C)[C@H]1Oc1ccc(C#N)c(Cl)c1`: the IC50 with LNCaP is 48 nM; in the assay on VCaP, 148 nM; in the assay with CWR22R, greater than 10 µM.
For the molecule `Cc1ncsc1-c1ccc(CNC(=O)[C@@H]2C[C@@H](O)CN2C(=O)[C@@H](NC(=O)CCCCCCCCCCCNC(=O)c2ccc(N3C(=S)N(c4ccc(C#N)c(C(F)(F)F)c4)C(=O)C3(C)C)cc2F)C(C)(C)C)cc1`, the Activity in assay [2] worked out at 30%.
Regarding `Cc1cc([C@H](C(=O)N2C[C@H](O)C[C@H]2C(=O)N[C@@H](CC(=O)N2CCC(N3CCC(C#Cc4ccc(N5C(=S)N(c6ccc(C#N)c(C(F)(F)F)c6)C(=O)C5(C)C)cc4)CC3)CC2)c2ccc(-c3scnc3C)cc2)C(C)C)on1`, the Activity in assay [1] was found to be 20%; in assay [2] it was 81%.
Regarding `Cc1ncsc1-c1ccc(CNC(=O)[C@@H]2C[C@@H](O)CN2C(=O)[C@@H](NC(=O)CCOCCOCCNC(=O)c2ccc(N3C(=S)N(c4ccc(C#N)c(C(F)(F)F)c4)C(=O)C3(C)C)cc2F)C(C)(C)C)cc1`, the Activity in assay [2] came out at 32%.
For the molecule `Cc1ncsc1-c1ccc([C@H](C)NC(=O)[C@@H]2C[C@@H](O)CN2C(=O)[C@@H](NC(=O)CCCCN2CCN(c3ccc(C#Cc4ccc(N5C(=S)N(c6ccc(C#N)c(C(F)(F)F)c6)C(=O)C5(C)C)cc4)cn3)CC2)C(C)(C)C)cc1`, the Activity was 28% in assay [1] and 48% in assay [2].
Turning to `Cc1cc([C@H](C(=O)N2C[C@H](O)C[C@H]2C(=O)N[C@@H](CC(=O)N2CCC(N3CCC(C#Cc4ccc(Cc5c(C)nn(-c6ccc(C#N)c(Cl)c6)c5C)cc4)CC3)CC2)c2ccc(-c3scnc3C)cc2)C(C)C)on1`, the Activity in assay [2] is 65%.
On to `CNC(=O)c1ccc(N2C(=S)N(c3ccc(C#N)c(C(F)(F)F)c3)C(=O)C2(C)C)cc1F` [ENZALUTAMIDE], for which the figures for the IC50 with LNCaP and in the assay with VCaP were 25 nM and 87.4 nM, respectively.
As to `Cc1cc([C@H](C(=O)N2C[C@H](O)C[C@H]2C(=O)N[C@@H](CC(=O)NCCCCCCCCCNC(=O)c2ccc(C(=O)N[C@H]3C(C)(C)[C@H](Oc4ccc(C#N)c(Cl)c4)C3(C)C)cc2)c2ccc(-c3scnc3C)cc2)C(C)C)on1`, the Activity in assay [1] is 43%; in assay [2] it was 91%.
In the case of `Cc1ncsc1-c1ccc(CNC(=O)[C@@H]2C[C@@H](O)CN2C(=O)[C@@H](NC(=O)CCCCCCCCNC(=O)c2ccc(N3C(=S)N(c4ccc(C#N)c(C(F)(F)F)c4)C(=O)C3(C)C)cc2F)C(C)(C)C)cc1`, the Activity worked out at 15% in assay [1] and 66% in assay [2].
`Cc1ncsc1-c1ccc(CNC(=O)[C@@H]2C[C@@H](O)CN2C(=O)[C@@H](NC(=O)CCNC(=O)c2ccc(N3C(=S)N(c4ccc(C#N)c(C(F)(F)F)c4)C(=O)C3(C)C)cc2F)C(C)(C)C)cc1`: the Activity in assay [2] was 26%.
In the case of `Cc1cc([C@H](C(=O)N2C[C@H](O)C[C@H]2C(=O)N[C@@H](CC(=O)N2CCN(c3ccc(C#Cc4ccc(N5C(=S)N(c6ccc(C#N)c(C(F)(F)F)c6)C(=O)C5(C)C)cc4)cn3)CC2)c2ccc(-c3scnc3C)cc2)C(C)C)on1`, the Activity amounted to 22% in assay [1] and 72% in assay [2].
For `Cc1cc([C@H](C(=O)N2C[C@H](O)C[C@H]2C(=O)N[C@@H](CC(=O)N2CCC(N3CCC(C#Cc4ccc(N5C(=S)N(c6cnc(C#N)c(C(F)(F)F)c6)C(=O)C56CCC6)cc4)CC3)CC2)c2ccc(-c3scnc3C)cc2)C(C)C)on1` the same measures were 38% and 80%.
On to `Cc1cc([C@H](C(=O)N2C[C@H](O)C[C@H]2C(=O)N[C@@H](CC(=O)N2CCC(N3CCC(C#Cc4ccc(S(=O)(=O)CC(C)(O)C(=O)Nc5ccc(C#N)c(C(F)(F)F)c5)cc4)CC3)CC2)c2ccc(-c3scnc3C)cc2)C(C)C)on1` (stereo partly drawn), for which the Activity in assay [2] came to 18%.
For `CC(=O)N[C@H](C(=O)N1C[C@H](O)C[C@H]1C(=O)N[C@@H](CC(=O)N1CCC(N2CCC(C#Cc3ccc(C(=O)N[C@H]4C(C)(C)[C@H](Oc5ccc(C#N)c(Cl)c5)C4(C)C)cc3)CC2)CC1)c1ccc(-c2scnc2C)cc1)C(C)(C)C`, the Activity in assay [1] came to 39%; in assay [2], 77%.
Take `Cc1ncsc1-c1ccc([C@H](C)NC(=O)[C@@H]2C[C@@H](O)CN2C(=O)[C@@H](NC(=O)CN2CCN(c3ccc(C#Cc4ccc(N5C(=S)N(c6ccc(C#N)c(C(F)(F)F)c6)C(=O)C5(C)C)cc4)cn3)CC2)C(C)(C)C)cc1`: in assay [2], the Activity worked out at 3%.
Regarding `Cc1ncsc1-c1ccc(CNC(=O)[C@@H]2C[C@@H](O)CN2C(=O)[C@@H](NC(=O)CCCCCCCCCNC(=O)c2ccc(N3C(=S)N(c4ccc(C#N)c(C(F)(F)F)c4)C(=O)C3(C)C)cc2F)C(C)(C)C)cc1`, the Activity stood at 10% in assay [1] and 48% in assay [2].
`Cc1ncsc1-c1ccc(CNC(=O)[C@@H]2C[C@@H](O)CN2C(=O)[C@@H](NC(=O)CCCCCCNC(=O)c2ccc(N3C(=S)N(c4ccc(C#N)c(C(F)(F)F)c4)C(=O)C3(C)C)cc2F)C(C)(C)C)cc1`: the Activity in assay [2] was found to be 54%.
Turning to `Cc1ncsc1-c1ccc(CNC(=O)[C@@H]2C[C@@H](O)CN2C(=O)[C@@H](NC(=O)CCCCCCCCCCNC(=O)c2ccc(N3C(=S)N(c4ccc(C#N)c(C(F)(F)F)c4)C(=O)C3(C)C)cc2F)C(C)(C)C)cc1`, the Activity in assay [1] amounted to 11%; in assay [2], 48%.
For the molecule `Cc1ncsc1-c1ccc([C@H](CC(=O)N2CCC(N3CCC(C#Cc4ccc(C(=O)N[C@H]5C(C)(C)[C@H](Oc6ccc(C#N)c(Cl)c6)C5(C)C)cc4)CC3)CC2)NC(=O)[C@@H]2C[C@@H](O)CN2C(=O)[C@H](NC(=O)C2(F)CC2)C(C)(C)C)cc1`, the Activity in assay [2] is less than 5%.
